Assay results from US5153207A, “Piperidine derivative, method for preparation thereof, and a pharmaceutical composition comprising the same” (Hokuriku Pharmaceutical Co., Ltd., priority 1989, dated 1992).
Where a name gives a salt, the structure may show the parent alone.

Tests used:
[1] = test system: passive cutaneous anaphylaxis (PCA) in rats; test: 48 hr homologous passive cutaneous anaphylaxis (PCA) in rats; assay type: in vivo, male Wistar rats; conditions: 1 hr prior to challenge with antigen; for inhibition in vivo at 1 mg/kg: Rattus norvegicus, po, read-out: the percent inhibition of PCA in rats
Protocol: The following compounds were used as the reference compounds. 1.48 hr homologous passive cutaneous anaphylaxis (PCA) in rats a) Preparation of DNP-As and rat anti-DNP-As serum Ascaris extract coupled with 2,4-dinitrophenyl group (DNP-As) was prepared by the method of Koda et al. (Folia pharmacol. japon., 78, 319-334, 1981) and anti-DNP-As containing IgE antibody serum was prepared by the method of Tada and Okumura (J. Immunol., 106, 1019-1025, 1971). […] b) 48 hr homologous passive cutaneous anaphylaxis (PCA) in rats Male Wistar rats weighing 160 to 220 g were sensitized passively by intradermal injection in the back, of 0.05 ml of anti-DNP-As serum, diluted 21-fold with saline. […] After additional thirty minutes, the animals were killed by stunning and the skins were removed. The intensity of the response was evaluated by assaying the amount of dye leaked according to the method of Katayama et al. (Microbiol. Immunol., 22, 89-101, 1978). […] Test compounds were given orally in a dose 1.0 mg/kg 1 hr prior to challenge with antigen. As a control, 5 ml/kg of vehicle (0.5% CMC) alone were given in a similar manner.

[2] = test system: hexobarbital-induced anesthesia in mice; parameters: species or system male ddY mice; conditions: mouse, in vivo
From the text: The results of 48 hr homologous passive cutaneous anaphylaxis (PCA) in rats with the monitoring of antiallergic activity and potentiation of hexobarbital-induced anesthesia in mice with the monitoring of central nervous depressive activity are summarized in Table 1. The following compounds were used as the reference compounds.
2. Potentiation of hexobarbital-induced anesthesia in mice
The loss of righting reflex induced by hexobarbital was used as an index of anesthesia. Groups of eight male ddY mice (20-24 hr fasted) weighing 19 to 27 g were treated orally with the test compounds (30 mg/kg) or vehicle. Thirty minutes later, 80 mg/kg of hexobarbital sodium were injected i.p. to the animals and the duration of loss of righting reflex was observed. The percent increase of sleeping time was calculated using the following formula: [formula]

SMILES	inhibition in vivo at 1 mg/kg [1] [%]	the percent increase of hexobarbital-induced anesthesia in mice [2] [%]	the percent inhibition of PCA in rats ([1]; 1 mg/kg, p.o., hydrochloride) [%]
CN1CCC(OC(c2ccccc2)c2ccccc2)CC1 [Reference compound A, diphenylpyraline hydrochloride, reference compound]	-1	75	–
Cl.O=C(O)CCCCN1CCC(OC(c2ccccc2)c2ccc(F)cc2)CC1 (racemic) [Example 116, (±)-4-[(4-Fluorophenyl)phenylmethoxy]-1-piperidinevaleric acid hydrochloride]	83	31	–
Cc1ccc(C(OC2CCN(CCCCCC(=O)O)CC2)c2ccccc2)cc1.Cl (single isomer, unassigned; (-)) [Example 126, (-)-4-[(4-Methylphenyl)phenylmethoxy]-1-piperidinecaproic acid hydrochloride]	–	-1	36
Cl.O=C(O)CCCN1CCC(OC(c2ccccc2)c2ccc(F)cc2)CC1 (racemic) [Example 115, (±)-4-[(4-Fluorophenyl)phenylmethoxy]-1-piperidinebutyric acid hydrochloride]	73	21	–
COc1ccc(C(OC2CCN(CCCC(=O)O)CC2)c2ccccc2)cc1.Cl (racemic) [Example 87, (±)-4-[(4-Methoxyphenyl)phenylmethoxy]-1-piperidinebutyric acid hydrochloride]	54	18	–
Cc1ccc(C(OC2CCN(CCCCCCC(=O)O)CC2)c2ccccc2)cc1.Cl (racemic) [Example 73, (±)-4-[(4-Methylphenyl)phenylmethoxy]-1-piperidineheptanoic acid hydrochloride]	67	2	–
Cc1ccc(C(OC2CCN(CCCCCC(=O)O)CC2)c2ccccc2)cc1.Cl (racemic) [Example 64, (±)-4-[(4-Methylphenyl)phenylmethoxy]-1-piperidinecaproic acid hydrochloride]	68	-8	–
COc1ccc(C(OC2CCN(CCCCCC(=O)O)CC2)c2ccccc2)cc1.Cl (racemic) [Example 89, (±)-4-[(4-Methoxyphenyl)phenylmethoxy]-1-piperidinecaproic acid hydrochloride]	71	20	–
COc1ccc(C(OC2CCN(CCC(=O)O)CC2)c2ccccc2)cc1.Cl (racemic) [Example 86, (±)-4-[(4-Methoxyphenyl)phenylmethoxy]-1-piperidinepropionic acid hydrochloride]	60	4	–
CCOC(=O)Oc1ccc(C=CC=CC(=O)NCCN2CCC(OC(c3ccccc3)c3ccccc3)CC2)cc1OC [Reference compound B, N-[2-[4-(diphenylmethoxy)piperidino]ethyl]-5-[4-(ethoxycarbonyloxy)-3-methoxyphenyl]-2,4-pentadienoylamide, reference compound]	8	35	–
COC(=O)CCCCCN1CCC(OC(c2ccccc2)c2ccc(C)cc2)CC1.Cl (racemic) [Example 1, (±)-Methyl 4-[(4-methylphenyl)phenylmethoxy]-1-piperidinecaproate hydrochloride]	77	16	–
Cl.O=C(O)CCCCN1CCC(OC(c2ccc(F)cc2)c2ccc(F)cc2)CC1 [Example 120, 4-[Bis(4-fluorophenyl)methoxy]-1-piperidinevaleric acid hydrochloride]	64	-12	–
Cc1ccc(C(OC2CCN(CCCCCC(=O)O)CC2)c2ccccc2)cc1.Cl (single isomer, unassigned; (+)) [Example 125, (+)-4-[(4-Methylphenyl)phenylmethoxy]-1-piperidinecaproic acid hydrochloride]	55	29	–
Cc1ccc(C(OC2CCN(CCCC(=O)O)CC2)c2ccccc2)cc1.Cl (racemic) [Example 71, (±)-4-[(4-Methylphenyl)phenylmethoxy]-1-piperidinebutyric acid hydrochloride]	65	3	–
Cc1ccc(C(OC2CCN(CCCCC(=O)O)CC2)c2ccccc2)cc1.Cl (racemic) [Example 72, (±)-4-[(4-Methylphenyl)phenylmethoxy]-1-piperidinevaleric acid hydrochloride]	63	12	–
Cc1ccc(C(OC2CCN(CCCCCCCC(=O)O)CC2)c2ccccc2)cc1.Cl (racemic) [Example 74, (±)-4-[(4-Methylphenyl)phenylmethoxy]-1-piperidineoctanoic acid hydrochloride]	59	21	–
Cl.O=C(O)CCCN1CCC(OC(c2ccccc2)c2ccccc2Cl)CC1 (racemic) [Example 112, (±)-4-[(2-Chlorophenyl)phenylmethoxy]-1-piperidinebutyric acid hydrochloride]	53	29	–
Cc1ccc(C(OC2CCN(CCC(=O)O)CC2)c2ccccc2)cc1.Cl (racemic) [Example 70, (±)-4-[(4-Methylphenyl)phenylmethoxy]-1-piperidinepropionic acid hydrochloride]	51	-2	–
CCc1ccc(C(OC2CCN(CCCCCC(=O)O)CC2)c2ccccc2)cc1.Cl (racemic) [Example 77, (±)-4-[(4-Ethylphenyl)phenylmethoxy]-1-piperidinecaproic acid hydrochloride]	68	24	–
COC(=O)CCCCCN1CCC(OC(c2ccccc2)c2ccc(C)cc2)CC1.Cl (single isomer, unassigned; (+)) [Example 62, (+)-Methyl 4-[(4-methylphenyl)phenylmethoxy]-1-piperidinecaproate hydrochloride]	56	29	–
Cl.O=C(O)CCN1CCC(OC(c2ccccc2)c2ccccc2)CC1 [Example 65, 4-(Diphenylmethoxy)-1-piperidinepropionic acid hydrochloride]	62	29	–
